The values that follow are results of earlier work, collected in patent publication US20070010670A1, “Nitrogen-containing fused ring compounds and use thereof” (Japan Tobacco Inc., priority 2004, published 2007).

One series addresses CYP2C19 (Homo sapiens, UniProt P33261). The settings on record: cited from earlier work.
In the next series the target is CYP3A4 (Homo sapiens, UniProt P08684). To be noted: cited from earlier work.
In another series the target is T1, CYP2C8 (Homo sapiens, UniProt P10632).
T1 sequence (P10632 1-490): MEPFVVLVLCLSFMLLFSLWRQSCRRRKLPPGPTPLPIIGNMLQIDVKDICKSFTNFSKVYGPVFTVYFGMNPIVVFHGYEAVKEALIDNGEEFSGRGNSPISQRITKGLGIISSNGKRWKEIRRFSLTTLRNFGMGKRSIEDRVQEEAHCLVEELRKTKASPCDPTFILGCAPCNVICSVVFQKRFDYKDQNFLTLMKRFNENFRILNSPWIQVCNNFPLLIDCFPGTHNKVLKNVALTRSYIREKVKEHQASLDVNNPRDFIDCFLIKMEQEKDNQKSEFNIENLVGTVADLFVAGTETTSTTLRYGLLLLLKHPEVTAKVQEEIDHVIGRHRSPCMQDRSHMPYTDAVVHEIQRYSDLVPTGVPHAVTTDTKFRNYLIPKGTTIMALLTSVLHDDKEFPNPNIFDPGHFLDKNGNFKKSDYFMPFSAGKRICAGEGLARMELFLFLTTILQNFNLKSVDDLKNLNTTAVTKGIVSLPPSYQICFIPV
To be noted: cited from earlier work.

The target of another series is T2, URAT1 (Homo sapiens, UniProt Q96S37).
T2 sequence (Q96S37 1-553): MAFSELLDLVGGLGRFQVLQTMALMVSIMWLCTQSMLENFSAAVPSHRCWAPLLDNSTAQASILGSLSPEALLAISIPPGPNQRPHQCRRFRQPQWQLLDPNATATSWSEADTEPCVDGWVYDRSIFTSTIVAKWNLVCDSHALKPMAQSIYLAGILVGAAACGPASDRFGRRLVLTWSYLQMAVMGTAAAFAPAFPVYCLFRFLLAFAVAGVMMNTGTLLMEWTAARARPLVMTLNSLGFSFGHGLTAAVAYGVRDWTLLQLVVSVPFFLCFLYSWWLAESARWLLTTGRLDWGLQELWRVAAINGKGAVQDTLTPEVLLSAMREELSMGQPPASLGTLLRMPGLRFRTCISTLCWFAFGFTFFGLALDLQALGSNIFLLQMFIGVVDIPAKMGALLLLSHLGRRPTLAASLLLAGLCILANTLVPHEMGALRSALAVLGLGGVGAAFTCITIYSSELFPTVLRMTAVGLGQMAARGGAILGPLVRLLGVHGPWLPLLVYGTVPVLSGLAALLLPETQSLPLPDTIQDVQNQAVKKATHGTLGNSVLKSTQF
Also noted: host or cells: Xenopus laevis oocyte expression system. To be noted: Xenopus laevis oocyte expression system; cited from earlier work.

CYP3A4, sequence (P08684 whole entry): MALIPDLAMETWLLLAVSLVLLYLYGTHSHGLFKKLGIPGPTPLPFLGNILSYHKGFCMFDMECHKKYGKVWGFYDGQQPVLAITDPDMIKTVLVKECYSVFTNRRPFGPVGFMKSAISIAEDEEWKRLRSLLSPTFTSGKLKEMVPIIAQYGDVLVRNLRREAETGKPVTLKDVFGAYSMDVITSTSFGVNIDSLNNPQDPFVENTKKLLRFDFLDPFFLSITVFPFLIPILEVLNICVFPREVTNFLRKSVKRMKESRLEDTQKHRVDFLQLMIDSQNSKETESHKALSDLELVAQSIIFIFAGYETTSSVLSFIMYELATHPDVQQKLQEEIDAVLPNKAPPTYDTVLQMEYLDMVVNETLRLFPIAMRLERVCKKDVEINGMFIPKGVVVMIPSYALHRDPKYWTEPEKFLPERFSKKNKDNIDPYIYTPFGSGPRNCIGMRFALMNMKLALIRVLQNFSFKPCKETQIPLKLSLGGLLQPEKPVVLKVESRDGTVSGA
CYP2C19, sequence (P33261 whole entry): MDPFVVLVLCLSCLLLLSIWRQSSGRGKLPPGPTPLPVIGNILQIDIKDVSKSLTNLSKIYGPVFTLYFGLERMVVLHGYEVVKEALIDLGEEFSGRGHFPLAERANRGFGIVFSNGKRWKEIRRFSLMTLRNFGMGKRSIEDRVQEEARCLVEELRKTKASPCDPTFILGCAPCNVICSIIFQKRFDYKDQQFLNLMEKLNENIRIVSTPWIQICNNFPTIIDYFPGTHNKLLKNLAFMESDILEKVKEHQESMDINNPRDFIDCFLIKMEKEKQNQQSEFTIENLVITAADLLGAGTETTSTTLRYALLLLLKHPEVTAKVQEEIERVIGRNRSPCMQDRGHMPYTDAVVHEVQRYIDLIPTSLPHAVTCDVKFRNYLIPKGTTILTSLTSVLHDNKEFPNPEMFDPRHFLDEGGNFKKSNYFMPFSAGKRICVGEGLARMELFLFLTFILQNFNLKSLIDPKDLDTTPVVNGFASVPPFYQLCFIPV

With `CCc1oc2ccccc2c1C(=O)c1cc(Br)c(O)c(Br)c1` [benzbromarone], at CYP2C19, the “inhibitory action on CYP2C19” value was “strong inhibitory action”. The “inhibitory action on CYP3A4” value on CYP3A4 was “strong inhibitory action”. The “inhibitory action on CYP2C8” value on CYP2C8 was “strong inhibitory action”. Further, the “uric acid uptake via URAT1” value at URAT1 is given as “inhibited”.
